This is an account of results in patent US20130137629A1, “COMBINATION TREATMENT FOR METABOLIC DISORDERS” (WELLSTAT THERAPEUTICS CORPORATION, priority 2006, published 2013).

The test system of experiment [1] is db/db mice. The experiment can be described thus: Example 2: db/db mice with glucose above 400 mg/dL treated for 4 weeks; circulating glucose and pancreatic insulin (ECL assay). The following applies: Compound BI 100 mg/kg by oral gavage, exendin 3 μg/kg or 10 μg/kg i.p. Type of experiment: in vivo.
Procedure: Peripheral blood glucose levels of db/db mice was monitored. When the glucose levels exceeded 400 mg/dL the mice were divided into groups of 6 mice each. The mice in each group were given either vehicle or Compound BI (100 mg/kg by oral gavage)+/−i.p. injections of exendin-amide (Bachem, King of Prussia, PA) as indicated below for 4 weeks. • 1) Vehicle • 2) Vehicle+Exendin (3 μg/kg) • 3) Vehicle+Exendin (10 μg/kg) • 4) Compound BI • 5) Compound BI+Exendin (3 μg/kg) • 6) Compound BI+Exendin (10 μg/kg)
After four weeks of treatment, the mice were bled via the retroorbital sinus and sera sent to Anilytics, Inc. (Gaithersburg, Md.) for analysis of circulating glucose levels. The pancreata were collected, weighed, flash frozen and then processed for pancreatic insulin assays. Briefly, the pancreas was placed into pancreatic extraction solution (75% ethanol and 25% 0.15N HCl) and the volume adjusted to 1 mL per 100 mg of pancreas. The pancreas was then sonicated and stored at −20° C. overnight. The next day, the samples were centrifuged at 2500 rpm for 5 minutes at 4° C. to pellet unsolubilized material. 1.5 mL of supernatant was placed in an Eppendorf tube and spun in a microcentrifuge at 1300 rpm for 20 minutes at 4° C. to pellet any remaining unsolubilized material. […] The samples were then read on an M384 instrument (BioVeris Corp., Gaithersburg, Md.). […]
For experiment [2], the system named is db/db mice. The following applies: previous studies; cited from earlier work.
Experiment [3] relates to late-stage db/db mice. The experiment can be described thus: Example 1: late-stage db/db mice treated daily for 4 weeks; serum glucose, serum insulin and islet insulin. Type of experiment: in vivo. The procedure:
Serum glucose and insulin and pancreatic insulin were measured.

The test system of experiment [4] is db/db mice. The experiment is described as follows: Example 5: ten week-old db/db mice, Compound BI +/- P32/98 for 4 weeks. The following applies: Compound BI 100 mg/kg p.o., P32/98 10 mg/kg twice a day by gavage; for Circulating glucose levels: FIG. 11; for Pancreatic insulin: FIG. 12. Type of experiment: in vivo. The procedure: Ten week-old db/db mice were given vehicle or Compound BI (100 mg/kg, p.o.)+/−P32/98 (10 mg/kg, twice a day by gavage) as indicated for 4 weeks. Assays for circulating glucose and pancreatic insulin were conducted as in Example 3.

The subject of experiment [5] is streptozotocin-induced diabetes. The following applies: Pospisilik et al., Diabetes 52:741-750, 2003; cited from earlier work.

The structures appear in SMILES notation.

With `Cc1cccc(C)c1COc1cccc(C(=O)CCC(=O)O)c1` [Compound BI, 4-(3-(2,6-Dimethylbenzyloxy)phenyl)-4-oxobutyric acid], the Circulating glucose levels entry in experiment [1] (FIG. 4) was “significant reduction in circulating glucose levels”; in experiment [4], “reduced circulating glucose levels”. The Pancreatic insulin entry in experiment [1] (FIG. 5) is “corresponding increase in pancreatic insulin”; in experiment [4], “increased pancreatic insulin levels”. Besides, the Islet insulin content result in experiment [2] was “preserves islet insulin content”. Besides, in experiment [3] (daily for 4 weeks, Compound BI 100 mg/kg/day p.o., Exendin-4 amide 10 microgram/day i.p., FIG. 1), the Serum glucose entry is given as “reduced serum glucose substantially”. Moreover, the Islet insulin result in experiment [3] (daily for 4 weeks, Compound BI 100 mg/kg/day p.o., Exendin-4 amide 10 microgram/day i.p., FIG. 2) is given as “had more insulin than either of those two groups”. In addition, the Serum insulin result in experiment [3] (daily for 4 weeks, Compound BI 100 mg/kg/day p.o., Exendin-4 amide 10 microgram/day i.p., FIG. 3) was “without a significant increase in serum insulin”. Besides, the Insulin resistance entry in experiment [3] (inferred from glucose lowering without a significant increase in serum insulin, 4 weeks) is “reduced insulin resistance”.

On to `CC[C@H](C)[C@H](N)C(=O)N1CCSC1` [P32/98, reference compound], for which, in experiment [4], the Circulating glucose levels entry was “slight reduction in circulating glucose levels” and the Pancreatic insulin entry is reported as “no increase in pancreatic insulin”. Besides, in experiment [5], the “Activity in streptozotocin-induced diabetes” value is reported as “active”.
